Measured values reported in patent US9434711B2 (Janssen Pharmaceutica, NV, priority 2007, dated 2016).
Where two headings read alike, the source gives them in different places. Blank lines part the entries; values can stand above or below the compound they belong to.

Experiments:
Male Sprague Dawley rats = experiment: Chronic Constriction Injury (CCI)-Induced Model of Neuropathic Pain, Acetone-Induced Hypersensitivity; assay type: in vivo, rat; conditions: Rattus norvegicus, po, Na salt form; for inhibition in vivo at 30 mg/kg: 30 mg/kg p.o.; for inhibition in vivo at 10 mg/kg: 10 mg/kg p.o.
Description: Male Sprague Dawley rats (225-450 g; n=5-8/treatment) were used to evaluate the ability of selected compounds of the formula (I) to reverse CCI-induced cold hypersensitivity. Four loose ligatures of 4-0 chromic gut were surgically placed around the left sciatic nerve under inhalation anesthesia as described by Bennett et al (Bennett G J, Xie Y K. Pain 1988, 33(1): 87-107). Fourteen to 35 days following CCI surgery, subjects were placed in elevated observation chambers containing wire mesh floors and five applications of acetone (0.05 mL/application separated by approximately 5 minutes) were spritzed onto the plantar surface of the paw using a multidose syringe. An abrupt withdrawal or lifting of the paw was considered a positive response. The number of positive responses was recorded for each rat over the five trials. Following baseline withdrawal determinations, compounds of formula (I) are administered in an appropriate vehicle, such as hydroxypropyl-β-cyclodextrin (HP β CD), methylcellulose, Methocel, 10% Solutol, or H2O, or the like, by the appropriate route, i.p. or p.o. […] Results are presented as a percent inhibition of […], which was calculated for each subject as [1−(test compound withdrawals/pre-test withdrawals)]×100 and then averaged by treatment.

canine TRPM8 = canine TRPM8 (Canis lupus familiaris, UniProt Q1A7N1); experiment: In Vitro Canine TRPM8 Functional Assay (Ca2+ fluorescence, icilin activation); assay type: cell-based; conditions: for IC50: read-out: IC50; for inhibition at 0.2 µM: read-out: % Inh @ 0.2
canine TRPM8, sequence (Q1A7N1 1-1104): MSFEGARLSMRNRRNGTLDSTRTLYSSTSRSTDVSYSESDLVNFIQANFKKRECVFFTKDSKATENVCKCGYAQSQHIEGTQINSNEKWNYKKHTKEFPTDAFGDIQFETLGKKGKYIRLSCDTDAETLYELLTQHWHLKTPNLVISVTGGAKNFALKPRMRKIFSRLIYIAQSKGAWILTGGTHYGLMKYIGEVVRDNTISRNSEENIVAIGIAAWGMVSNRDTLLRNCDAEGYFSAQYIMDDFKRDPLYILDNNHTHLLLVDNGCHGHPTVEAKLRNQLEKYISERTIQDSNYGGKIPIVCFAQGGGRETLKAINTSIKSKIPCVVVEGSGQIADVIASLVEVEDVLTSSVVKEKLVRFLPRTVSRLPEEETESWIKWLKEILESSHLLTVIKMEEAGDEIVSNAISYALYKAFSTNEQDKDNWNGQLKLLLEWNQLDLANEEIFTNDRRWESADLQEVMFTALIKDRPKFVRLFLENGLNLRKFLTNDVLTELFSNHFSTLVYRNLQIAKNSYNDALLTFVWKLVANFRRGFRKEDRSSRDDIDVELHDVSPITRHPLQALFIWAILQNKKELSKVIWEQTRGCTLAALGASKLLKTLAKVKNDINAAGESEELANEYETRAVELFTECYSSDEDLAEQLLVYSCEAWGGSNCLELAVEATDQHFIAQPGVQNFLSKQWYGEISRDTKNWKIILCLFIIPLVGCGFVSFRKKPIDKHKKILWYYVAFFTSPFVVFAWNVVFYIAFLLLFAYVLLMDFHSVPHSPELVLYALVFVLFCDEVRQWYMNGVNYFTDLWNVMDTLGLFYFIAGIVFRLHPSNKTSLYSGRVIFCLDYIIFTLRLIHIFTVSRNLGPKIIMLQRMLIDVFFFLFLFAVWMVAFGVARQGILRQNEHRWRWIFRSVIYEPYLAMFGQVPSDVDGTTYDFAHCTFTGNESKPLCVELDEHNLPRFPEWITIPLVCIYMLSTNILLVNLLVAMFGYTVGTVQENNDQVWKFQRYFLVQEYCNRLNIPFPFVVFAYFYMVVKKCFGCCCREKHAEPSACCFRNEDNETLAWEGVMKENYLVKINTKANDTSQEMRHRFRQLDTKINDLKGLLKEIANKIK
Method in brief: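 Eight-point dose-response curves in quadruplicate gave EC50 or IC50 values from a Ca2+-sensitive dye assay in HEK293 cells stably carrying canine TRPM8. Icilin, dosed near its 80% maximal level, followed a 5 min compound exposure.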

[1] = 3 h, Water, pretreatment 3 hr, read-out: Percent Inhibition
[2] = HEK293 cells stably expressing canine TRPM8, icilin activation, eight-point dose-response
[3] = compound at 0.2 μM, canine TRPM8, icilin activation
[4] = 4 h, Water, pretreatment 4 hr, read-out: Percent Inhibition
[5] = 3 h, HPbCD, pretreatment 3 hr, read-out: Percent Inhibition
[6] = 0.2 μM compound, HEK293 cells stably expressing canine TRPM8, icilin activation
[7] = HEK293 cells stably expressing canine TRPM8, icilin activation, average of two or more determinations
[8] = compound at 0.5 μM, canine TRPM8, icilin activation

Compound: O=C(O)c1ccc(S(=O)(=O)N(Cc2ccc(F)c(C(F)(F)F)c2)c2sc3ccccc3c2Br)cc1 [Compound 292, N-(3-Bromo-benzo[b]thiophen-2-yl)-N-(4-fluoro-3-trifluoromethyl-benzyl)-4-carboxy-benzenesulfonamide]
inhibition in vivo at 30 mg/kg (Male Sprague Dawley rats; 2 h, Water, pretreatment 2 hr, read-out: Percent Inhibition): 60% | inhibition in vivo at 3 mg/kg (Male Sprague Dawley rats; 3 h, 3 mg/kg p.o., Water, pretreatment 3 hr, read-out: Percent Inhibition): 7% | inhibition in vivo at 10 mg/kg (Male Sprague Dawley rats; [1]): 16% | inhibition in vivo at 30 mg/kg (Male Sprague Dawley rats; [1]): 21% | inhibition in vivo at 100 mg/kg (Male Sprague Dawley rats; 3 h, 100 mg/kg p.o., Water, pretreatment 3 hr, read-out: Percent Inhibition): 67% | ED50 (Male Sprague Dawley rats; Water, pretreatment 3 hr): 70 mg/kg | IC50 (canine TRPM8; [2]): 0.8 nM | inhibition at 0.2 µM (canine TRPM8; [3]): 98% | inhibition at 0.5 µM (canine TRPM8; compound at 0.5 μM, canine TRPM8, icilin activation, read-out: % Inh @ 0.5): 100%

Compound: O=C(O)c1ccc(S(=O)(=O)N(CCC2CC2)c2sc3ccccc3c2Br)cc1 [Compound 396, N-(3-Bromo-benzo[b]thiophen-2-yl)-N-(2-cyclopropylethyl)-4-carboxy-benzenesulfonamide]
inhibition in vivo at 30 mg/kg (Male Sprague Dawley rats; [4]): 50% | IC50 (canine TRPM8; [2]): 5 nM | inhibition at 0.2 µM (canine TRPM8; [3]): 101%

Compound: Cc1c(N(Cc2ccc(F)cc2)S(=O)(=O)c2ccc(C(=O)O)cc2)sc2ccccc12 [Compound 487, N-(3-Methyl-benzo[b]thiophen-2-yl)-N-(4-fluoro-benzyl)-4-carboxy-benzenesulfonamide]
inhibition in vivo at 10 mg/kg (Male Sprague Dawley rats; [5]): 43% | inhibition in vivo at 30 mg/kg (Male Sprague Dawley rats; [5]): 66% | IC50 (canine TRPM8; [2]): 2 nM | inhibition at 0.2 µM (canine TRPM8; [3]): 101%

Compound: Cc1c(N(Cc2ccc(F)c(F)c2)S(=O)(=O)c2ccc(C(=O)O)cc2)sc2ccccc12 [Compound 488, N-(3-Methyl-benzo[b]thiophen-2-yl)-N-(3,4-difluoro-benzyl)-4-carboxy-benzenesulfonamide]
inhibition in vivo at 30 mg/kg (Male Sprague Dawley rats; 2 h, HPbCD, pretreatment 2 hr, read-out: Percent Inhibition): 43% | IC50 (canine TRPM8; [2]): 1 nM | inhibition at 0.2 µM (canine TRPM8; [3]): 101%

Compound: Cc1c(N(Cc2ccc(F)c(Cl)c2)S(=O)(=O)c2ccc(C(=O)O)cc2)sc2ccccc12 [Compound 489, N-(3-Methyl-benzo[b]thiophen-2-yl)-N-(4-fluoro-3-chloro-benzyl)-4-carboxy-benzenesulfonamide]
inhibition in vivo at 30 mg/kg (Male Sprague Dawley rats; [1]): 86% | inhibition in vivo at 10 mg/kg (Male Sprague Dawley rats; [4]): 13% | inhibition in vivo at 17.8 mg/kg (Male Sprague Dawley rats; 4 h, 17.8 mg/kg p.o., Water, pretreatment 4 hr, read-out: Percent Inhibition): 60% | inhibition in vivo at 30 mg/kg (Male Sprague Dawley rats; [4]): 57% | inhibition in vivo at 56 mg/kg (Male Sprague Dawley rats; 4 h, 56 mg/kg p.o., Water, pretreatment 4 hr, read-out: Percent Inhibition): 70% | ED50 (Male Sprague Dawley rats; Water, pretreatment 4 hr): 23 mg/kg | IC50 (canine TRPM8; [2]): 0.6 nM | inhibition at 0.2 µM (canine TRPM8; [3]): 101%

Compound: Cc1c(N(Cc2ccc(OC(F)F)cc2)S(=O)(=O)c2ccc(C(=O)O)cc2)sc2ccccc12 [Compound 490, N-(3-Methyl-benzo[b]thiophen-2-yl)-N-(4-difluoromethoxy-benzyl)-4-carboxy-benzenesulfonamide]
inhibition in vivo at 30 mg/kg (Male Sprague Dawley rats; 1 h, HPbCD, pretreatment 1 hr, read-out: Percent Inhibition): 23% | IC50 (canine TRPM8; [2]): 1 nM | inhibition at 0.2 µM (canine TRPM8; [3]): 101%

Compound: N-(3,4-Difluoro-benzyl)-N-thieno[3,2-b]pyridin-2-yl-benzenesulfonamide [Compound 146]
IC50 (canine TRPM8; [2]): 48 nM | % Inh @ 0.5 (μM) (canine TRPM8; [8]): 97%

Compound: N-(3-Bromo-thieno[3,2-b]pyridin-2-yl)-N-(3,4-difluoro-benzyl)-benzenesulfonamide and N-(3-chloro-thieno[3,2-b]pyridin-2-yl)-N-(3,4-difluoro-benzyl)-benzenesulfonamide [Compound 145]
IC50 (canine TRPM8; [2]): 14.1 nM | % Inh @ 0.5 (μM) (canine TRPM8; [8]): 100%

Compound: N-(3-Chloro-benzo[b]thiophen-2-yl)-N-(4,4,4-trifluoro-butyl)-4-(5-oxo-4,5-dihydro-[1,2,4]oxadiazol-3-yl)-benzenesulfonamide [Compound 515]
% Inh @ 0.2 (μM) (canine TRPM8; [3]): 49%

Compound: N-(3-Cyclopentyl-benzo[b]thiophen-2-yl)-N-(4-fluoro-3-trifluoromethyl-benzyl)-4-carbomethoxy-benzenesulfonamide [Compound 501]
% Inh @ 0.2 (μM) (canine TRPM8; [3]): 31%

Compound: N-(3-Methyl-benzo[b]thiophen-2-yl)-N-(4-fluoro-3-trifluoromethyl-benzyl)-4-pyrazol-1-yl-benzenesulfonamide [Compound 332]
IC50 (canine TRPM8; [2]): 7 nM | % Inh @ 0.2 (μM) (canine TRPM8; [3]): 100%

Compound: N-(3-Methyl-benzo[b]thiophen-2-yl)-N-(5,5,5-trifluoro-pentyl)-4-(5-oxo-4,5-dihydro-[1,2,4]oxadiazol-3-yl)-pyrid-3-ylsulfonamide [Compound 809]
% Inh @ 0.2 (μM) (canine TRPM8; [6]): 103% | IC50 (canine TRPM8; [7]): 6.9 nM

Compound: N-(3-Methyl-benzo[b]thiophen-2-yl)-N-(5,5,5-trifluoro-pentyl)-4-thiomorpholin-4-yl-benzenesulfonamide [Compound 749]
% Inh @ 0.2 (μM) (canine TRPM8; [3]): 64%

Compound: N-(3-Methyl-benzo[b]thiophen-2-yl)-N-(cyclopropyl-ethyl)-4-morpholino-3-pyridyl-sulfonamide [Compound 798]
% Inh @ 0.2 (μM) (canine TRPM8; [6]): 102% | IC50 (canine TRPM8; [7]): 35.9 nM

Compound: N-(Benzo[b]thiophen-2-yl)-N-(3,3,3-trifluoro-propyl)-4-(5-oxo-4,5-dihydro-[1,2,4]oxadiazol-3-yl)-benzenesulfonamide [Compound 597]
% Inh @ 0.2 (μM) (canine TRPM8; [3]): 25%

Results, then the compound that gave them:

inhibition at 0.2 µM (canine TRPM8; [6]): 63%
Compound: COC(=O)c1ccc(S(=O)(=O)N(CCCF)c2cc3ccccc3s2)cc1 [Compound 842, N-(Benzo[b]thiophen-2-yl)-N-(3-fluoro-propyl)-4-carbomethoxy-benzenesulfonamide]

inhibition at 0.2 µM (canine TRPM8; [6]): 31%
Compound: COC(=O)c1ccc(S(=O)(=O)N(CCF)c2cc3ccccc3s2)cc1 [Compound 843, N-(Benzo[b]thiophen-2-yl)-N-(2-fluoro-ethyl)-4-carbomethoxy-benzenesulfonamide]

inhibition at 0.2 µM (canine TRPM8; [6]): 31%
Compound: O=S(=O)(c1ccccc1)N(CCF)c1cc2ccccc2s1 [Compound 844, N-(Benzo[b]thiophen-2-yl)-N-(2-fluoro-ethyl)-benzenesulfonamide]

inhibition at 0.2 µM (canine TRPM8; [6]): 24%
Compound: Cc1c(N(Cc2ccc(F)cc2)S(=O)(=O)c2ccc(OCc3ccc(F)cc3)c(F)c2)sc2ccccc12 [Compound 845, 3-Fluoro-N-(4-fluoro-benzyl)-4-(4-fluoro-benzyloxy)-N-(3-methyl-benzo[b]thiophen-2-yl)-benzenesulfonamide]

inhibition at 0.2 µM (canine TRPM8; [6]): 28%
Compound: Cc1c(N(Cc2ccccc2)S(=O)(=O)c2ccc(OCc3ccccc3)c(F)c2)sc2ccccc12 [Compound 846, N-(Benzyl)-4-benzyloxy-3-fluoro-N-(3-methyl-benzo[b]thiophen-2-yl)-benzenesulfonamide]

inhibition at 0.2 µM (canine TRPM8; [6]): 33%
Compound: CCS(=O)(=O)N(Cc1ccnc(F)c1)c1cc2ccccc2s1 [Compound 847, N-(Benzo[b]thiophen-2-yl)-N-(2-fluoro-pyridin-4-ylmethyl)-ethane-sulfonamide]

inhibition at 0.2 µM (canine TRPM8; [6]): 68%
Compound: CCS(=O)(=O)N(Cc1ccnc(F)c1)c1sc2ccccc2c1C(C)=O [Compound 848, N-(3-Acetyl-benzo[b]thiophen-2-yl)-N-(2-fluoro-pyridin-4-ylmethyl)-ethansulfonamide]

inhibition at 0.2 µM (canine TRPM8; [6]): 25%
Compound: CCCCNS(=O)(=O)N(CCCC)c1sc2ccccc2c1Br [Compound 849, N-(3-Bromo-benzo[b]thiophen-2-yl)-N,N′-bis-butyl-sulfamide]

inhibition at 0.2 µM (canine TRPM8; [6]): 28%
Compound: CCCCNS(=O)(=O)N(CCCC)c1cc2ccccc2s1 [Compound 850, N-Benzo[b]thiophen-2-yl-N,N′-bis-butyl-sulfamide]

inhibition at 0.2 µM (canine TRPM8; [3]): 42%
Compound: O=C(Nc1ccc(S(=O)(=O)N(CCC2CC2)c2sc3ccccc3c2Cl)cc1)C(F)(F)F [Cpd 694, N-(3-Chloro-benzo[b]thiophen-2-yl)-N-(2-cyclopropyl-ethyl)-4-trifluoroacetamido-benzenesulfonamide]

% Inh @ 0.2 (μM) (canine TRPM8; [6]): 102% | IC50 (canine TRPM8; [7]): 28 nM
Compound: O=S(=O)(c1ccccc1)N(CCCF)c1sc2ccccc2c1CO [Cpd 820]

IC50 (canine TRPM8; [2]): 97 nM | % Inh @ 0.2 (μM) (canine TRPM8; [3]): 85%
Compound: N-(3-Methyl-benzo[b]thiophen-2-yl)-N-(4-fluoro-3-trifluoromethyl-benzyl)-4-thiomethyl-pyridin-3-yl-sulfonamide [Compound 378]
